Test results: patent publication US8975259B2, “Compositions and methods for inhibiting G protein signaling” (University of Rochester, priority 2007, dated 2015)
“Also recorded” adds a separate entry of the source.

Columns and labels:
[1] = molecular target: T1, PLCβ3-bGβ1γ2 interaction (UniProt P54311+P63212); test: PLCβ3 binding to biotinylated Gβ1γ2 (avidin agarose precipitation); conditions: M119 10 μM, M201 1 μM; result in words
T1 construct: made in house; host or cells: bGβ1γ2: Sf9 insect cells
Description: (§1) Purified PLCβ2 (0.25 ng) was assayed in the presence (▴) or absence (▪) of 100 nM purified Gβ1γ2. […] Assays contained 10 ng of purified p101/p110 PI3Kγ heterodimer with or without 100 nM purified Gβ1γ2. Left panel: (▴) 100 nM Gβ1γ2 or (▪) no βγ. […] M119 or M201 and 25 nM purified GRK2 were added simultaneously to 250 nM biotinylated Gβ1γ2 (bGβ1γ2) immobilized on streptavidin agarose. GRK2 was detected with antibody to GRK2. Data are representative (mean ±SEM, except D) repeated at least three times each. […] 30 nM bGβ1γ2 was incubated with either 30 nM PLCβ2 or PLCβ3 in the presence or absence of M119 or M201 for 16 h at 4° C. before precipitation with avidin agarose and detection with PLCβ2,or Gβ antibodies. […] Same as 4E with PLCβ3.

[2] = molecular target: T2, Gαi1-Gβ1γ2 interaction (UniProt P54311+P63212); test: Flow cytometry competition for FITC-Gαi1 binding to immobilized b-Gβ1γ2
T2 construct: made in house; host or cells: b-βγ: Sf9 insect cells
Description: (2003) supra; Sarvazyan, et al. (1998) J. Biol. […] Fluorescein-labeled Ga^ (Fan) was prepared in accordance with standard methods (Sarvazyan, et al. (1998) supra). Assays were used to determine peptide effects on Gα-Gβγ interactions included competition and dissociation assays (Ghosh, et al. (2003) supra). […] The bead-associated fluorescence was then recorded in a BD Biosciences […] flow cytometer. Data was corrected for background fluorescence and fit with a sigmoid dose response curve using Graph Pad Prism 4. To measure dissociation of Fan from b-Gβaγ2, 100 pM of Fa^ was incubated with 50 pM immobilized b-Gβ1γ2 at room temperature for 15-20 minutes.

[3] = system: fMLP-dependent Ca2+ release in differentiated HL60 cells; test: fMLP-dependent Ca2+ release in fura-2 loaded DMSO-differentiated HL60 cells; type: cell-based, human; conditions: 10 μM compound, 250 nM fMLP, result in words
Description: Cells were pretreated with DMSO or 10 μM compounds for 5 min prior to stimulation with 250 nM fMLP. […] Normalized peak Ca^2+ responses were pooled from three independent experiments each (mean±SEM). Cells were pretreated with DMSO (▪) or compounds (▴) for 5 min prior to stimulation. FIG. 5C is the same as A except 10 μM M201 was tested. […] Differentiated HL60 cells were treated with 10 μM compound prior to stimulation with 250 nM fMLP. Translocation of endogenous GRK2 was determined by Western blotting with a GRK2 antibody and quantitative chemiluminescence. Data are mean±SEM from 5 experiments, * P<0.05, **P<0.01 ANOVA. […] Differentiated HL60 cells stably over-expressing GFP-PHAkt were treated with 10 μM compound prior to stimulation with 100 nM fMLP. Translocation of GFP-PHAkt to the membrane was determined by Western blotting with an anti-GFP antibody and quantitative chemiluminescence. Data are mean±SEM from 4 experiments. *** P<0.001 ANOVA. […] Differentiated HL60 cells were pretreated with 10 μM of compound prior to stimulation with 1 μM fMLP for 5 min. Levels of phosphorylated and total ERK were determined by Western blotting.
Ca^2+ fluxes were measured using two 35 mL cultures of differentiated HL-60 neutrophil cultures (0.2×10^6 cells/mL). Cells were cultured for three days with in DMSO
(1.2%), washed in HSS and resuspended in 2 mL HBSS at a concentration of 7×10^s cells/mL. Addition of DMSO to the growth medium induces differentiation of these cells into morphologically and functionally mature neutrophils
(Collins, et al. (1978) Proc. Natl. Acad. Sci. USA 75:2458; Collins, et al. (1979) J. Exp. Med. 149:969). Neutrophils were preloaded with fura-2 (1 μM), a fluorescent Ca^2+-sensitive indicator (Suh, et al. (1996) J. Biol. Chem. 271:32753), for 45 minutes, washed with HBSS and resuspended in 2 mL of indicator-free HBSS. An 140 μL aliquote of cells was added to a total of 2 mL HBSS. Fluorescence ratios were taken by dual excitation at 340 and 380 nm and emission at 510 nm. After a stable baseline was established, either DMSO or NSC119910 was added and incubated for 5 minutes. […]

[4] = molecular target: T3, PLCβ2-bGβ1γ2 interaction (UniProt P54311+P63212); test: PLCβ2 binding to biotinylated Gβ1γ2 (avidin agarose precipitation); conditions: M119 10 μM, M201 1 μM; result in words
T3 construct: made in house; host or cells: bGβ1γ2: Sf9 insect cells
Description: as §1

[5] = system: N-type Ca^2+ channels; test: Norepinephrine-dependent inhibition of N-type Ca2+ channels in rat superior cervical ganglion neurons (patch clamp); type: cell-based; conditions: initial analysis; result in words
Description: Norepinephrine inhibits N-type Ca^2+ channels through a Gβγ dependent mechanism in SCG neurons and activates GIRK channels when they are heterologously expressed. Neurons are pretreated with varying concentrations of compounds (either in the bath or included in the patch pipette), and NE dependent inhibition of N-type Ca^2+ channels are measured in the whole cell patch clamp configuration. […] This voltage dependence is diagnostic of Gβγ-mediated modulation. The “facilitation” ratio of the postpulse current to the prepulse current (during which inhibition is strong) provides a quantitative measure of the degree of Gβγ modulation. Uninhibited currents generally have a facilitation ratio around 1 so cells pretreated with compounds that inhibit Gβγ interactions with the channel causes the facilitation ratio to approach 1. The effects on responses to other receptors such as transfected μ-opioid receptors or endogenous M4 muscarinic receptors are also examined. GIRK channel regulation is assessed by microinjecting GIRK1/2 subunits in SCG neurons and measuring K^+ channel regulation by NE at varying concentrations of compound. Basal K^+ channel activity and Ca^2+ channel activity is assessed to look for non-specific effects of Gβγ blockers. […]

[6] = system: GRK2 membrane recruitment in adult mouse cardiomyocytes; test: β-AR-mediated GRK2 membrane recruitment in isolated adult mouse cardiomyocytes; type: cell-based; conditions: result in words
Description: Thus, it was tested whether M119 could block GRK2 recruitment to membrane-bound Gβγ subunits upon agonist stimulation of β-AR in cardiomyocytes, similar to what had been observed in vitro with the peptide inhibitors described above. Indeed M119 reduced β-AR-mediated recruitment of GRK2 to membranes of isolated adult mouse cardiomyocytes, with a mild reduction of membrane associated GRK2 at baseline.

O=C(O)C1CCCCC1c1c2ccc(=O)c(O)c-2oc2c(O)c(O)ccc12 (centres unmarked) [Compound M119, cyclohexanecarboxylic acid, 2-(4,5,6-trihydroxy-3-oxo-3H-xanthen-9-yl)-(9cl)]
effect on direct binding of bGβ1γ2 to PLCβ3 [1]: inhibited | IC50 [2]: 400 nM | interactions of Gα subunit with Gβγ subunits ([2]; result in words): blocked | effect on fMLP-induced Ca^2+ increase [3]: attenuated | effect on fMLP-induced Ca^2+ increase ([3]; listed as NSC119910): suppressed; also recorded: block | effect on direct binding of bGβ1γ2 to PLCβ2 [4]: inhibited | effect on NE dependent inhibition of N-type Ca^2+ channels [5]: unaffected | effect on β-AR-mediated recruitment of GRK2 to membranes [6]: reduced
